Results published in patent US20260055102A1 (Redx Pharma Limited, priority 2022, published 2026).

Tests used:
[1] = molecular target: Recombinant human DDR2 (aa427-855 containing a GST tag) (Homo sapiens (Human), UniProt Q16832); test: LanthaScreen Eu Kinase Binding Assay DDR2; conditions: Kinase Tracer 178 10 nM, at least two independent replicates; for IC50: read-out: DDR2 pIC50 (converted)
How it was run: (§1)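 DDR1 (2.5 nM) or DDR2 (1.75 nM) was preincubated with compound 30 min at RT in 50 mM HEPES pH 7.3, 10 mM MgCl2, 1 mM EGTA, 0.01% Tween. Eu-anti-GST and Tracer 178 were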

[2] = molecular target: Recombinant human DDR1 (aa440-876 containing a GST tag) (Homo sapiens (Human), UniProt Q08345); test: LanthaScreen Eu Kinase Binding Assay DDR1; conditions: Kinase Tracer 178 5 nM, at least two independent replicates; for IC50: read-out: DDR1 pIC50 (converted)
How it was run: as §1

Chain of Recombinant human DDR2 (aa427-855 containing a GST tag) (Q16832 427-855): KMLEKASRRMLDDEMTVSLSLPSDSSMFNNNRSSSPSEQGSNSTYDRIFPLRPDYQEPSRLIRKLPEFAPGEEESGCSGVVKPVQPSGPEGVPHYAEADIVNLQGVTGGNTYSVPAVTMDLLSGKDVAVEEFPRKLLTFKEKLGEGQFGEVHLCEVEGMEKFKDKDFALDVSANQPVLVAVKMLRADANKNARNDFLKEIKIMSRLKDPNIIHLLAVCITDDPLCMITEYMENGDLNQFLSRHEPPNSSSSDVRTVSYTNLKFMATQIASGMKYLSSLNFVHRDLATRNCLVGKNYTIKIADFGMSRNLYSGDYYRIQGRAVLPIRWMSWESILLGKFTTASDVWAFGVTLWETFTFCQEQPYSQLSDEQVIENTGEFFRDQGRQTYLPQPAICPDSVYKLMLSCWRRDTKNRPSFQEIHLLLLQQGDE
Chain of Recombinant human DDR1 (aa440-876 containing a GST tag) (Q08345 other isoform, or with tags, fused parts or gaps): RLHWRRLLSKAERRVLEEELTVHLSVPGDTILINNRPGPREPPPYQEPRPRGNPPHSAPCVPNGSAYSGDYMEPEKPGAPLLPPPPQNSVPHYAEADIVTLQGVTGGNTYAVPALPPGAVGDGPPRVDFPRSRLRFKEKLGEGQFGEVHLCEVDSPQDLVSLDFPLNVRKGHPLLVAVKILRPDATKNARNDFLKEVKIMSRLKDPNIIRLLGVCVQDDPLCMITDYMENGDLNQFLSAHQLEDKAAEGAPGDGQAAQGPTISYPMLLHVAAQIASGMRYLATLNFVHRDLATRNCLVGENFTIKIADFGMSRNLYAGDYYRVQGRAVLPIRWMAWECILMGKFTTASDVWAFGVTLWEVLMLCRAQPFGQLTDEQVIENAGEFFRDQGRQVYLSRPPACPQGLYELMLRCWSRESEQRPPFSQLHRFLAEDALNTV

SMILES	IC50 [1]	DDR1 pIC50 [2]	DDR2 pIC50 [1]	IC50 [2]
Cc1cccc2c1n(-c1ccc(-c3cncc4c3cnn4C)nc1)c(=O)n2CC(=O)N1CCOC[C@H]1C(F)(F)F [Example 53, 4-methyl-3-[6-(1-methylpyrazolo[3,4-c]pyridin-4-yl)-3-pyridyl]-1-[2-oxo-2-[(3S)-3-(trifluoromethyl)morpholin-4-yl]ethyl]benzimidazol-2-one]	10 to 100 nM	A (pIC50>8)	–	–
Cc1cccc2c1n(-c1ccc(-c3cncc4c3cnn4C)nc1)c(=O)n2CC(=O)N1CCO[C@H](C(F)(F)F)C1 [Example 54, 4-methyl-3-[6-(1-methylpyrazolo[3,4-c]pyridin-4-yl)-3-pyridyl]-1-[2-oxo-2-[(2S)-2-(trifluoromethyl)morpholin-4-yl]ethyl]benzimidazol-2-one]	10 to 100 nM	A (pIC50>8)	–	–
Cc1cccc2c1n(-c1ccc(-c3cncc4c3cnn4C)nc1)c(=O)n2CC(=O)N1CCC[C@H]1C(F)(F)F [Example 56, 4-methyl-3-[6-(1-methylpyrazolo[3,4-c]pyridin-4-yl)-3-pyridyl]-1-[2-oxo-2-[(2S)-2-(trifluoromethyl)pyrrolidin-1-yl]ethyl]benzimidazol-2-one]	10 to 100 nM	A (pIC50>8)	–	–
Cc1cccc2c1n(-c1ccc(-c3cncc4c3cnn4C)cn1)c(=O)n2CC(=O)N[C@@H](C)C(F)(F)F [Example 57, 2-[4-methyl-3-[5-(1-methylpyrazolo[3,4-c]pyridin-4-yl)-2-pyridyl]-2-oxo-benzimidazol-1-yl]-N-[(1S)-2,2,2-trifluoro-1-methyl-ethyl]acetamide]	–	A (pIC50>8)	C (7≥pIC50>6)	–
Cc1cccc2c1n(-c1ccc(-c3cncc4c3cnn4C)cn1)c(=O)n2CC(=O)NCC(F)(F)F [Example 58]	100 to 1000 nM	–	–	10 to 100 nM
Cc1cccc2c1n(-c1ccc(-c3cncc4c3cnn4C)cn1)c(=O)n2CC(=O)N1CCC[C@H]1C(F)(F)F [Example 59, 4-methyl-3-[5-(1-methylpyrazolo[3,4-c]pyridin-4-yl)-2-pyridyl]-1-[2-oxo-2-[(2S)-2-(trifluoromethyl)pyrrolidin-1-yl]ethyl]benzimidazol-2-one]	10 to 100 nM	A (pIC50>8)	–	–
Cc1cccc2c1n(-c1ccc(-c3cncc4c3cnn4C)cn1)c(=O)n2CC(=O)N1CCO[C@@H](C(F)(F)F)C1 [Example 60, 4-methyl-3-[5-(1-methylpyrazolo[3,4-c]pyridin-4-yl)-2-pyridyl]-1-[2-oxo-2-[(2R)-2-(trifluoromethyl)morpholin-4-yl]ethyl]benzimidazol-2-one]	100 to 1000 nM	–	–	10 to 100 nM
C[C@@H](CC(F)(F)F)NC(=O)Cn1c(=O)n(-c2ccc(-c3cncc4c3cnn4C)cc2)c2ccccc21 [Example 62, 2-[3-[4-(1-methylpyrazolo[3,4-c]pyridin-4-yl)phenyl]-2-oxo-benzimidazol-1-yl]-N-[(1S)-3,3,3-trifluoro-1-methyl-propyl]acetamide]	100 to 1000 nM	A (pIC50>8)	–	–
Cn1ncc2c(-c3ccc(-n4c(=O)n(CC(=O)NCC(F)(F)F)c5ccccc54)nc3)cncc21 [Example 63, 2-[3-[5-(1-methylpyrazolo[3,4-c]pyridin-4-yl)-2-pyridyl]-2-oxo-benzimidazol-1-yl]-N-(2,2,2-trifluoroethyl) acetamide]	–	–	D (pIC50≤6)	100 to 1000 nM
Cc1cccc2c1n(-c1ccc(-c3cncc4c3cnn4C)cn1)c(=O)n2CC(=O)N[C@@H](C)C(F)(F)F [Example 64, 2-[4-methyl-3-[5-(1-methylpyrazolo[3,4-c]pyridin-4-yl)-2-pyridyl]-2-oxo-benzimidazol-1-yl]-N-[(1S)-2,2,2-trifluoro-1-methyl-ethyl]acetamide]	–	B (8≥pIC50>7)	D (pIC50≤6)	–

Continued, values first:

IC50 [1]	DDR1 pIC50 [2]	DDR2 pIC50 [1]	IC50 [2]	SMILES
100 to 1000 nM	A (pIC50>8)	–	–	Cn1ncc2c(-c3ccc(-n4c(=O)n(CC(=O)N5CCC[C@H]5C(F)(F)F)c5ccccc54)cn3)cncc21 [Example 65, 1-[6-(1-methylpyrazolo[3,4-c]pyridin-4-yl)-3-pyridyl]-3-[2-oxo-2-[(2S)-2-(trifluoromethyl)pyrrolidin-1-yl]ethyl]benzimidazol-2-one]
–	–	D (pIC50≤6)	10 to 100 nM	Cc1cccc2c1n(-c1ncc(-c3cncc4c3cnn4C)cn1)c(=O)n2CC(=O)NCC(F)(F)F [Example 66, 2-[4-methyl-3-[5-(1-methylpyrazolo[3,4-c]pyridin-4-yl)pyrimidin-2-yl]-2-oxo-benzimidazol-1-yl]-N-(2,2,2-trifluoroethyl)acetamide]
100 to 1000 nM	–	–	10 to 100 nM	Cc1cccc2c1n(-c1ccc(-c3cncc4c3cnn4C)nn1)c(=O)n2CC(=O)NCC(F)(F)F [Example 67, 2-[4-methyl-3-[6-(1-methylpyrazolo[3,4-c]pyridin-4-yl)pyridazin-3-yl]-2-oxo-benzimidazol-1-yl]-N-(2,2,2-trifluoroethyl)acetamide]
10 to 100 nM	A (pIC50>8)	–	–	Cc1cccc2c1n(-c1ccc(-c3cncc4[nH]ncc34)nc1)c(=O)n2CC(=O)N[C@@H](C)C(F)(F)F [Example 68, 2-[4-methyl-2-oxo-3-[6-(1H-pyrazolo[3,4-c]pyridin-4-yl)-3-pyridyl]benzimidazol-1-yl]-N-[(1S)-2,2,2-trifluoro-1-methyl-ethyl]acetamide]
10 to 100 nM	A (pIC50>8)	–	–	Cc1cccc2c1n(-c1ccc(-c3cncc4[nH]ncc34)cn1)c(=O)n2CC(=O)N[C@@H](C)C(F)(F)F [Example 69, 2-[4-methyl-2-oxo-3-[5-(1H-pyrazolo[3,4-c]pyridin-4-yl)-2-pyridyl]benzimidazol-1-yl]-N-[(1S)-2,2,2-trifluoro-1-methyl-ethyl]acetamide]
100 to 1000 nM	A (pIC50>8)	–	–	Cc1cccc2c1n(-c1ccc(-c3cncc4[nH]ncc34)cn1)c(=O)n2CC(=O)N1CCO[C@H](C(F)(F)F)C1 [Example 70, 4-methyl-1-[2-oxo-2-[(2S)-2-(trifluoromethyl)morpholin-4-yl]ethyl]-3-[5-(1H-pyrazolo[3,4-c]pyridin-4-yl)-2-pyridyl]benzimidazol-2-one]
100 to 1000 nM	A (pIC50>8)	–	–	Cc1cccc2c1n(-c1ccc(-c3cncc4[nH]ncc34)cn1)c(=O)n2CC(=O)N1CCO[C@@H](C(F)(F)F)C1 [Example 71, 4-methyl-1-[2-oxo-2-[(2R)-2-(trifluoromethyl)morpholin-4-yl]ethyl]-3-[5-(1H-pyrazolo[3,4-c]pyridin-4-yl)-2-pyridyl]benzimidazol-2-one]
100 to 1000 nM	A (pIC50>8)	–	–	Cc1cccc2c1n(-c1ccc(-c3cncc4[nH]ncc34)cn1)c(=O)n2CC(=O)NCC(F)(F)F [Example 72, 2-[4-methyl-2-oxo-3-[5-(1H-pyrazolo[3,4-c]pyridin-4-yl)-2-pyridyl]benzimidazol-1-yl]-N-(2,2,2-trifluoroethyl)acetamide]
100 to 1000 nM	A (pIC50>8)	–	–	Cc1cccc2c1n(-c1ncc(-c3cncc4[nH]ncc34)cn1)c(=O)n2CC(=O)N[C@@H](C)C(F)(F)F [Example 73, 2-[4-methyl-2-oxo-3-[5-(1H-pyrazolo[3,4-c]pyridin-4-yl)pyrimidin-2-yl]benzimidazol-1-yl]-N-[(1S)-2,2,2-trifluoro-1-methyl-ethyl]acetamide]
–	–	D (pIC50≤6)	10 to 100 nM	Cn1ncc2c(-c3ccc(-n4c(=O)n(CC(=O)NCC(F)(F)F)c5cccc(C#N)c54)cc3)cncc21 [Example 74, 2-[4-cyano-3-[4-(1-methylpyrazolo[3,4-c]pyridin-4-yl)phenyl]-2-oxo-benzimidazol-1-yl]-N-(2,2,2-trifluoroethyl)acetamide]
100 to 1000 nM	–	–	10 to 100 nM	Cc1cccc2c1n(-c1cnc(-c3cncc4c3cnn4C)nc1)c(=O)n2CC(=O)NCC(F)(F)F [Example 75, 2-[4-methyl-3-[2-(1-methylpyrazolo[3,4-c]pyridin-4-yl)pyrimidin-5-yl]-2-oxo-benzimidazol-1-yl]-N-(2,2,2-trifluoroethyl)acetamide]
–	D (pIC50≤6)	D (pIC50≤6)	–	Cn1ncc2c(-c3ccc(-n4c(=O)n(CC(=O)NCC(F)(F)F)c5cccnc54)cc3)cncc21 [Example 76, 2-[3-[4-(1-methylpyrazolo[3,4-c]pyridin-4-yl)phenyl]-2-oxo-imidazo[4,5-b]pyridin-1-yl]-N-(2,2,2-trifluoroethyl)acetamide]
–	D (pIC50≤6)	D (pIC50≤6)	–	Cn1ncc2c(-c3ccc(-n4c(=O)n(CC(=O)NCC(F)(F)F)c5ccncc54)cc3)cncc21 [Example 77, 2-[3-[4-(1-methylpyrazolo[3,4-c]pyridin-4-yl)phenyl]-2-oxo-imidazo[4,5-c]pyridin-1-yl]-N-(2,2,2-trifluoroethyl)acetamide]
–	D (pIC50≤6)	D (pIC50≤6)	–	Cn1ncc2c(-c3ccc(-n4c(=O)n(CC(=O)NCC(F)(F)F)c5cnccc54)cc3)cncc21 [Example 78, 2-[1-[4-(1-methylpyrazolo[3,4-c]pyridin-4-yl)phenyl]-2-oxo-imidazo[4,5-c]pyridin-3-yl]-N-(2,2,2-trifluoroethyl)acetamide]
–	–	D (pIC50≤6)	10 to 100 nM	Cn1ncc2c(-c3ccc(-n4c(=O)n(CC(=O)N5CCC[C@H]5C(F)(F)F)c5cccnc54)cc3)cncc21 [Example 79, 3-[4-(1-methylpyrazolo[3,4-c]pyridin-4-yl)phenyl]-1-[2-oxo-2-[(2S)-2-(trifluoromethyl)pyrrolidin-1-yl]ethyl]imidazo[4,5-b]pyridin-2-one]
